Measurements published in paper PMC5218480 (PLoS ONE, 2017).

Test system: MV-4-11 cells
Experiment: Gene expression microarray analysis (Affymetrix PrimeView) and GSEA
Format: cell-based, human
Design: RFU PODN (11730768_x_at) / Fold change /veh PODN (11730768_x_at) / RFU LINC00158 (11744669_a_at) / Fold change /veh LINC00158 (11744669_a_at) / RFU DUSP10 (11751237_a_at) / Fold change /veh DUSP10 (11751237_a_at) / RFU ID3 (11757404_x_at) / Fold change /veh ID3 (11757404_x_at) / RFU PLEKHG5 (11737974_s_at) / Fold change /veh PLEKHG5 (11737974_s_at) / RFU LRRC4B (11730491_at) / Fold change /veh LRRC4B (11730491_at) / RFU GIMAP4 (11747438_a_at) / Fold change /veh GIMAP4 (11747438_a_at) / RFU KRT8 (11758183_x_at) / Fold change /veh KRT8 (11758183_x_at) / RFU CNN1 (11734310_a_at) / Fold change /veh CNN1 (11734310_a_at) / RFU VPS37D (11726825_at) / Fold change /veh VPS37D (11726825_at) / RFU C10orf10 (11716522_x_at) / Fold change /veh C10orf10 (11716522_x_at) / RFU KIR2DL2 /// KIR2DL4 /// KIR2DL5A /// KIR2DL5B /// KIR2DS1 /// KIR2DS2 /// KIR2DS3 /// KIR2DS4 /// KIR3DL3 /// KIR3DL3 /// KIR3DS1 (11738374_at) / Fold change /veh KIR2DL2 /// KIR2DL4 /// KIR2DL5A /// KIR2DL5B /// KIR2DS1 /// KIR2DS2 /// KIR2DS3 /// KIR2DS4 /// KIR3DL3 /// KIR3DL3 /// KIR3DS1 (11738374_at) / RFU C1QL1 (11718748_at) / Fold change /veh C1QL1 (11718748_at) / RFU TMPRSS4 (11747572_a_at) / Fold change /veh TMPRSS4 (11747572_a_at) / RFU HAMP (11756126_x_at) / Fold change /veh HAMP (11756126_x_at) / RFU RNFT2 (11725882_a_at) / Fold change /veh RNFT2 (11725882_a_at) / RFU NR4A2 (11747474_a_at) / Fold change /veh NR4A2 (11747474_a_at) / RFU ABCC12 (11746883_a_at) / Fold change /veh ABCC12 (11746883_a_at) / RFU TMEM136 (11760407_x_at) / Fold change /veh TMEM136 (11760407_x_at) / RFU CLDN22 /// WWC2 (11732394_at) / Fold change /veh CLDN22 /// WWC2 (11732394_at) / RFU HLA-DPB1 (11760878_x_at) / Fold change /veh HLA-DPB1 (11760878_x_at) / RFU SPINT1 (11716480_a_at) / Fold change /veh SPINT1 (11716480_a_at) / RFU GAP43 (11754022_s_at) / Fold change /veh GAP43 (11754022_s_at) / RFU A4GNT (11735810_at) / Fold change /veh A4GNT (11735810_at) / RFU PRB3 (11715151_x_at) / Fold change /veh PRB3 (11715151_x_at) / RFU TUBB4B (11761932_at) / Fold change /veh TUBB4B (11761932_at) / RFU CAPN14 (11732068_a_at) / Fold change /veh CAPN14 (11732068_a_at) / RFU TMCC2 (11721928_a_at) / Fold change /veh TMCC2 (11721928_a_at) / RFU IRGQ (11745062_a_at) / Fold change /veh IRGQ (11745062_a_at) / RFU FAM174B (11720279_a_at) / Fold change /veh FAM174B (11720279_a_at) / RFU TMPRSS4 (11748680_a_at) / Fold change /veh TMPRSS4 (11748680_a_at) / RFU FAM212B (11763350_a_at) / Fold change /veh FAM212B (11763350_a_at) / RFU PLEKHG5 (11743358_a_at) / Fold change /veh PLEKHG5 (11743358_a_at) / RFU ZSCAN30 (11745921_a_at) / Fold change /veh ZSCAN30 (11745921_a_at) / RFU CMKLR1 (11741424_a_at) / Fold change /veh CMKLR1 (11741424_a_at) / RFU LOC101060620 /// MAPK8IP1 (11723275_at) / Fold change /veh LOC101060620 /// MAPK8IP1 (11723275_at) / RFU SPTSSB (11747773_x_at) / Fold change /veh SPTSSB (11747773_x_at) / RFU PRSS12 (11739890_at) / Fold change /veh PRSS12 (11739890_at) / RFU BIN1 (11741810_x_at) / Fold change /veh BIN1 (11741810_x_at) / RFU WNT11 (11732464_a_at) / Fold change /veh WNT11 (11732464_a_at) / RFU C10orf10 (11716521_a_at) / Fold change /veh C10orf10 (11716521_a_at) / RFU C5orf56 (11738089_at) / Fold change /veh C5orf56 (11738089_at) / RFU CYB561 (11721691_x_at) / Fold change /veh CYB561 (11721691_x_at) / RFU ANKRD19P (11752326_a_at) / Fold change /veh ANKRD19P (11752326_a_at) / RFU OR2T12 /// OR2T33 /// OR2T8 (11738714_s_at) / Fold change /veh OR2T12 /// OR2T33 /// OR2T8 (11738714_s_at) / RFU VCAN (11748164_a_at) / Fold change /veh VCAN (11748164_a_at) / RFU JSRP1 (11732532_at) / Fold change /veh JSRP1 (11732532_at) / RFU KRTAP10-11 (11738290_x_at) / Fold change /veh KRTAP10-11 (11738290_x_at) / RFU MYO3A (11730013_a_at) / Fold change /veh MYO3A (11730013_a_at) / RFU EBF3 (11725865_a_at) / Fold change /veh EBF3 (11725865_a_at) / RFU CAMK2N1 (11719241_x_at) / Fold change /veh CAMK2N1 (11719241_x_at) / RFU C5orf56 (11738088_a_at) / Fold change /veh C5orf56 (11738088_a_at) / RFU OLFML3 (11715873_a_at) / Fold change /veh OLFML3 (11715873_a_at) / RFU LOC100653217 /// NTM (11731650_a_at) / Fold change /veh LOC100653217 /// NTM (11731650_a_at) / RFU MAPK11 (11762145_a_at) / Fold change /veh MAPK11 (11762145_a_at) / RFU FIZ1 (11724087_x_at) / Fold change /veh FIZ1 (11724087_x_at) / RFU OASL (11726364_x_at) / Fold change /veh OASL (11726364_x_at) / RFU SOX15 (11748057_x_at) / Fold change /veh SOX15 (11748057_x_at) / RFU CD79A (11719716_a_at) / Fold change /veh CD79A (11719716_a_at) / RFU HIST1H1D (11736915_at) / Fold change /veh HIST1H1D (11736915_at) / RFU CASKIN2 (11723855_a_at) / Fold change /veh CASKIN2 (11723855_a_at) / RFU LOC730098 (11760151_x_at) / Fold change /veh LOC730098 (11760151_x_at) / RFU OR4N2 (11742367_at) / Fold change /veh OR4N2 (11742367_at) / RFU PRRT2 (11749266_a_at) / Fold change /veh PRRT2 (11749266_a_at) / RFU SNX32 (11753110_a_at) / Fold change /veh SNX32 (11753110_a_at) / RFU CDHR5 (11726645_a_at) / Fold change /veh CDHR5 (11726645_a_at) / RFU RCAN1 (11760418_a_at) / Fold change /veh RCAN1 (11760418_a_at) / RFU FAM167A (11723789_a_at) / Fold change /veh FAM167A (11723789_a_at) / RFU FAM26E (11764081_at) / Fold change /veh FAM26E (11764081_at) / RFU ISYNA1 (11749810_s_at) / Fold change /veh ISYNA1 (11749810_s_at) / RFU ACY1 (11761880_at) / Fold change /veh ACY1 (11761880_at) / RFU 11764098_at / Fold change /veh 11764098_at / RFU SAMD14 (11745864_x_at) / Fold change /veh SAMD14 (11745864_x_at) / RFU NPB (11741838_a_at) / Fold change /veh NPB (11741838_a_at) / RFU TMPRSS6 (11731388_a_at) / Fold change /veh TMPRSS6 (11731388_a_at) / RFU KRTAP10-2 (11738614_at) / Fold change /veh KRTAP10-2 (11738614_at) / RFU ARHGAP8 /// PRR5-ARHGAP8 (11727945_x_at) / Fold change /veh ARHGAP8 /// PRR5-ARHGAP8 (11727945_x_at) / RFU KRTAP5-7 /// NADSYN1 (11734609_at) / Fold change /veh KRTAP5-7 /// NADSYN1 (11734609_at) / RFU RASL12 (11751679_a_at) / Fold change /veh RASL12 (11751679_a_at) / RFU CDKN2B (11736163_a_at) / Fold change /veh CDKN2B (11736163_a_at) / RFU PRF1 (11729649_at) / Fold change /veh PRF1 (11729649_at) / RFU, ZNF638 /// ZNF638-IT1 / Fold change vs veh, ZNF638 /// ZNF638-IT1 / RFU, PANK3 / Fold change vs veh, PANK3 / RFU, SH3YL1 / Fold change vs veh, SH3YL1 / RFU, ZEB2 / Fold change vs veh, ZEB2 / RFU, NRIP1 / Fold change vs veh, NRIP1 / RFU, PTTG1IP / Fold change vs veh, PTTG1IP / RFU, CAPN2 / Fold change vs veh, CAPN2 / RFU, MED14 / Fold change vs veh, MED14 / RFU, SNORA58 / Fold change vs veh, SNORA58 / RFU, C1orf63 / Fold change vs veh, C1orf63 / RFU, LRRFIP1 / Fold change vs veh, LRRFIP1 / RFU, NDUFAF7 / Fold change vs veh, NDUFAF7 / RFU, SLC12A2 / Fold change vs veh, SLC12A2 / RFU, IBTK / Fold change vs veh, IBTK / RFU, ESF1 / Fold change vs veh, ESF1 / Fold change vs veh, TMEM50B / RFU, TAOK1 / Fold change vs veh, TAOK1 / RFU, ACBD3 / Fold change vs veh, ACBD3 / RFU, TMA16 / Fold change vs veh, TMA16 / RFU, RWDD3 / Fold change vs veh, RWDD3 / RFU, BCAT1 / Fold change vs veh, BCAT1 / RFU, EDEM3 / Fold change vs veh, EDEM3 / RFU, TMEM33 / Fold change vs veh, TMEM33 / RFU, WDR75 / Fold change vs veh, WDR75 / RFU, AHCTF1 / Fold change vs veh, AHCTF1 / RFU, TFRC / Fold change vs veh, TFRC / RFU, ZDHHC17 / Fold change vs veh, ZDHHC17 / RFU, NOM1 / Fold change vs veh, NOM1 / RFU, ARL8B / Fold change vs veh, ARL8B / RFU, ZBTB11 / Fold change vs veh, ZBTB11 / RFU, TAMM41 / Fold change vs veh, TAMM41 / RFU, KIAA1704 /// LOC100996395 / Fold change vs veh, KIAA1704 /// LOC100996395 / RFU, ING1 / Fold change vs veh, ING1 / RFU, TRMT61B / Fold change vs veh, TRMT61B / RFU, FUBP3 / Fold change vs veh, FUBP3 / RFU, TP53 / Fold change vs veh, TP53 / RFU, TNKS2 / Fold change vs veh, TNKS2 / RFU, ZFP14 / Fold change vs veh, ZFP14 / RFU, ACTR2 / Fold change vs veh, ACTR2 / RFU, PPP3R1 / Fold change vs veh, PPP3R1 / RFU, PIK3R1 / Fold change vs veh, PIK3R1 / RFU, HNRNPA1 / Fold change vs veh, HNRNPA1 / RFU, RNF170 / Fold change vs veh, RNF170 / RFU, ZNF28 / Fold change vs veh, ZNF28 / RFU, RNGTT / Fold change vs veh, RNGTT / RFU, OGT / Fold change vs veh, OGT / RFU, BRD1 / Fold change vs veh, BRD1 / RFU, MARS / Fold change vs veh, MARS / RFU, ZNF655 / Fold change vs veh, ZNF655 / RFU, FAHD1 / Fold change vs veh, FAHD1 / RFU, BDP1 / Fold change vs veh, BDP1 / RFU, LRRCC1 / Fold change vs veh, LRRCC1 / RFU, ARID1A / Fold change vs veh, ARID1A / RFU, ZNF146 / Fold change vs veh, ZNF146 / RFU, ZNF330 / Fold change vs veh, ZNF330 / RFU, GPN3 / Fold change vs veh, GPN3 / RFU, C9orf123 / Fold change vs veh, C9orf123 / RFU, N4BP2L2 / Fold change vs veh, N4BP2L2 / RFU, ARFIP1 / Fold change vs veh, ARFIP1 / RFU, FAM179B / Fold change vs veh, FAM179B / RFU, BCL10 / Fold change vs veh, BCL10 / RFU, UHRF1BP1L / Fold change vs veh, UHRF1BP1L / RFU, BET1 / Fold change vs veh, BET1 / RFU, CNOT2 / Fold change vs veh, CNOT2 / RFU, ZNF268 / Fold change vs veh, ZNF268 / Fold change vs veh, ZNF507 / RFU, DGCR2 / Fold change vs veh, DGCR2 / RFU, WDSUB1 / Fold change vs veh, WDSUB1 / Fold change vs veh, HSP90B1 /// MIR3652 / RFU, ADSS / Fold change vs veh, ADSS / RFU, GK / Fold change vs veh, GK / RFU, ZNF148 / Fold change vs veh, ZNF148 / RFU, TAF9 / Fold change vs veh, TAF9 / RFU, SLC1A5 / Fold change vs veh, SLC1A5 / RFU, SLMO2 / Fold change vs veh, SLMO2 / RFU, ABCC4 / Fold change vs veh, ABCC4 / RFU, LOC101060439 /// RAP1B / Fold change vs veh, LOC101060439 /// RAP1B / RFU, RFX7 / Fold change vs veh, RFX7 / RFU, GTPBP10 / Fold change vs veh, GTPBP10 / RFU, CNEP1R1 / Fold change vs veh, CNEP1R1 / RFU, BIVM-ERCC5 /// ERCC5 / Fold change vs veh, BIVM-ERCC5 /// ERCC5 / RFU, ILF3 / Fold change vs veh, ILF3 / RFU 11762660_at / Fold change /veh 11762660_at / RFU VCAN (11757783_s_at) / Fold change /veh VCAN (11757783_s_at) / RFU DDX43 (11728927_at) / Fold change /veh DDX43 (11728927_at) / RFU KRT8 (11758188_x_at) / Fold change /veh KRT8 (11758188_x_at) / RFU NKD1 (11759106_at) / Fold change /veh NKD1 (11759106_at) / RFU SRD5A1 (11742802_a_at) / Fold change /veh SRD5A1 (11742802_a_at) / RFU TPSAB1 /// TPSB2 (11721975_s_at) / Fold change /veh TPSAB1 /// TPSB2 (11721975_s_at) / RFU GSTM3 (11746129_a_at) / Fold change /veh GSTM3 (11746129_a_at) / RFU IL23R (11737362_x_at) / Fold change /veh IL23R (11737362_x_at) / RFU TMEM51 (11727254_a_at) / Fold change /veh TMEM51 (11727254_a_at) / RFU PIWIL2 (11732686_x_at) / Fold change /veh PIWIL2 (11732686_x_at) / RFU ORM1 (11744905_x_at) / Fold change /veh ORM1 (11744905_x_at) / RFU CCDC152 (11743942_at) / Fold change /veh CCDC152 (11743942_at) / RFU ECM1 (11717891_a_at) / Fold change /veh ECM1 (11717891_a_at) / RFU IL23R (11748794_a_at) / Fold change /veh IL23R (11748794_a_at) / RFU TNFAIP8L3 (11732012_x_at) / Fold change /veh TNFAIP8L3 (11732012_x_at) / RFU MBOAT4 (11741988_at) / Fold change /veh MBOAT4 (11741988_at) / RFU 11764193_at / Fold change /veh 11764193_at / RFU TMEM53 (11763286_at) / Fold change /veh TMEM53 (11763286_at) / RFU MAGEB2 (11727129_at) / Fold change /veh MAGEB2 (11727129_at) / RFU TMEM200A (11744735_a_at) / Fold change /veh TMEM200A (11744735_a_at) / RFU CCDC152 (11751479_a_at) / Fold change /veh CCDC152 (11751479_a_at) / RFU FAM211A (11726209_a_at) / Fold change /veh FAM211A (11726209_a_at) / RFU RGS16 (11746705_a_at) / Fold change /veh RGS16 (11746705_a_at) / RFU VCAN (11755009_s_at) / Fold change /veh VCAN (11755009_s_at) / RFU RHOB (11743442_s_at) / Fold change /veh RHOB (11743442_s_at) / RFU RGS16 (11720943_a_at) / Fold change /veh RGS16 (11720943_a_at) / RFU RGS16 (11720944_at) / Fold change /veh RGS16 (11720944_at) / RFU, VPS4B / Fold change vs veh, VPS4B / RFU, CREB1 / Fold change vs veh, CREB1 / RFU, DNAJC13 / Fold change vs veh, DNAJC13 / RFU, GNAQ / Fold change vs veh, GNAQ / RFU, CDK5R1 / Fold change vs veh, CDK5R1 / RFU, ZRANB3 / Fold change vs veh, ZRANB3 / RFU, CUL4A / Fold change vs veh, CUL4A / RFU, CCNY / Fold change vs veh, CCNY / RFU, UFL1 / Fold change vs veh, UFL1 / RFU, COG3 / Fold change vs veh, COG3 / RFU, DIAPH2 / Fold change vs veh, DIAPH2 / RFU, SKA2 / Fold change vs veh, SKA2 / RFU, AFF3 / Fold change vs veh, AFF3 / RFU, LMF1 / Fold change vs veh, LMF1 / RFU, IPO11 / Fold change vs veh, IPO11 / RFU, DFFB / Fold change vs veh, DFFB / RFU, FOXP1 / Fold change vs veh, FOXP1 / RFU, CARD8 / Fold change vs veh, CARD8 / RFU, STRN3 / Fold change vs veh, STRN3 / RFU, ADK / Fold change vs veh, ADK / RFU, RASSF2 / Fold change vs veh, RASSF2 / RFU, WIPF1 / Fold change vs veh, WIPF1 / RFU, LARP1B / Fold change vs veh, LARP1B / RFU, RASA1 / Fold change vs veh, RASA1 / RFU, RB1 / Fold change vs veh, RB1 / RFU, PPFIA1 / Fold change vs veh, PPFIA1 / RFU, MAT2A / Fold change vs veh, MAT2A / RFU, CCT5 / Fold change vs veh, CCT5 / RFU, WDR92 / Fold change vs veh, WDR92 / RFU, CUX1 / Fold change vs veh, CUX1 / RFU, TTC7A / Fold change vs veh, TTC7A / RFU, TMEM135 / Fold change vs veh, TMEM135 / RFU, DEPTOR / Fold change vs veh, DEPTOR / RFU, CPM / Fold change vs veh, CPM / RFU, DNAJB6 / Fold change vs veh, DNAJB6 / RFU, CACNA2D3 / Fold change vs veh, CACNA2D3 / RFU, DTX4 / Fold change vs veh, DTX4 / RFU, TFCP2 / Fold change vs veh, TFCP2 / RFU, GMCL1 /// GMCL1P1 / Fold change vs veh, GMCL1 /// GMCL1P1 / RFU, AEBP2 / Fold change vs veh, AEBP2 / RFU, SNHG1 /// SNORD22 /// SNORD25 /// SNORD26 /// SNORD27 /// SNORD28 /// SNORD29 /// SNORD31 / Fold change vs veh, SNHG1 /// SNORD22 /// SNORD25 /// SNORD26 /// SNORD27 /// SNORD28 /// SNORD29 /// SNORD31 / Fold change (Aza/veh), C12orf56 (ProbeSet 11735607_a_at) / Fold change (ACY-1035/veh), C12orf56 (ProbeSet 11735607_a_at) / Fold change (Aza/veh), FGFR1OP (ProbeSet 11751329_s_at) / Fold change (ACY-1035/veh), FGFR1OP (ProbeSet 11751329_s_at) / Fold change (Aza/veh), VPS36 (ProbeSet 11739960_a_at) / Fold change (ACY-1035/veh), VPS36 (ProbeSet 11739960_a_at) / RFU SYPL1 (11715823_x_at) / Fold change /veh SYPL1 (11715823_x_at) / RFU IGFBP7 (11715501_s_at) / Fold change /veh IGFBP7 (11715501_s_at) / RFU REEP3 (11722064_at) / Fold change /veh REEP3 (11722064_at) / RFU IGLL1 (11728026_x_at) / Fold change /veh IGLL1 (11728026_x_at): dose or concentration left out as unconfirmed
Conditions: MV-4-11 cells, 48 hours

`Nc1ncn([C@@H]2O[C@H](CO)[C@@H](O)[C@H]2O)c(=O)n1` [azacitidine] was tested, and the “Fold change /veh OASL (11726364_x_at)” value was 0.86.
